Laboratory results taken from patent US20250171498A1, “ANTIBIOTIC COMPOUNDS, FORMULATIONS AND METHODS OF USE” (UNIVERSITEIT LEIDEN, priority 2022, published 2025).
≈ marks a conversion by molar mass, not a printed value. Read-outs that look alike come from different tables or passages of the source. Where a SMILES comes first, the peptide text is derived from it. Bridges are numbered along the chain shown (N, C = ends). [ ]: non-standard residue; d: D form. The star is where a group is joined. S(2-cyclohexylethyl) = C1CCC(CCS*)CC1; S(3-Cl-benzyl) = Clc1cccc(CS*)c1; S(3-Methylbutyl) = CC(C)CCS*; dDab = NCC[C@@H](N)C(=O)O; dDap = NC[C@@H](N)C(=O)O; Dab = NCC[C@H](N)C(=O)O; Dap = NC[C@H](N)C(=O)O

Columns and labels:
Type in all cases: cell-based
[1] = test system: A. Baumanni (ATCC 19606)
Protocol: (§1) Compounds were prepared according to scheme 2, 3, 4, 6, 7, or 8 above, preparing different sets of compounds with different substitution patterns. All polymyxin analogues prepared were tested for their anti-bacterial activity on relevant Gram-negative strains (Table B). Polymyxin B and PMBN were taken along as references. In addition, the toxicity on renal Proximal Tubular Epithelial Cells (PTECs) was evaluated.
(§2) 3rd Generation compounds were also subjected to testing for their anti-bacterial activity on relevant Gram-negative strains (Table C). Polymyxin B and PMBN were taken along as references. In addition, the toxicity on renal Proximal Tubular Epithelial Cells (PTECs) was evaluated, see Table C.

[2] = test system: E. Coli (ATCC 25922)
Protocol: as §1, §2

[3] = test system: K. Pneumoniae (ATCC 13883)
Protocol: as §1, §2

[4] = test system: P. Aeruginosa (ATCC 27853)
Protocol: as §1, §2

[5] = test system: renal Proximal Tubular Epithelial Cells (PTECs); test: Toxicity on renal Proximal Tubular Epithelial Cells
Protocol: as §1, §2

MIC A. Baumanni (ATCC 19606) ([1]; ATCC 19606) | MIC E. Coli (ATCC 25922) ([2]; ATCC 25922) | MIC K. Pneumoniae (ATCC 13883) ([3]; ATCC 13883) | MIC P. Aeruginosa (ATCC 27853) ([4]; ATCC 27853) | MIC A. Baumanni (ATCC 19606) ([1]; strain ATCC 19606) | MIC E. Coli (ATCC 25922) ([2]; strain ATCC 25922) | MIC K. Pneumoniae (ATCC 13883) ([3]; strain ATCC 13883) | MIC P. Aeruginosa (ATCC 27853) ([4]; strain ATCC 27853) | Compound | PTEC Toxicity (relative to polymyxin B) [5] | PTEC Toxicity (relative to polymyxin B) ([5]; relative value, polymyxin B = 1)
0.5 µg/mL (≈ 0.444 µM) | 2 µg/mL (≈ 1.78 µM) | 0.5 µg/mL (≈ 0.444 µM) | 4 µg/mL (≈ 3.55 µM) | – | – | – | – | CC(C)CCSSC[C@@H](N)C(=O)N[C@H](C(=O)NCC(=O)N[C@H]1CCNC(=O)[C@H]([C@@H](C)O)NC(=O)[C@H](CCN)NC(=O)[C@H](CCN)NC(=O)[C@H](CC(C)C)NC(=O)[C@@H](Cc2ccccc2)NC(=O)[C@H](CCN)NC1=O)[C@@H](C)O (H-[dC](S(3-Methylbutyl))TG[Dab][Dab][dF]L[Dab][Dab]T; lactam 4-C) | 26.8 | –
0.5 µg/mL (≈ 0.414 µM) | 2 µg/mL (≈ 1.65 µM) | 0.5 µg/mL (≈ 0.414 µM) | 4 µg/mL (≈ 3.31 µM) | – | – | – | – | CC(C)C[C@@H]1NC(=O)[C@@H](Cc2ccccc2)NC(=O)[C@H](CCN)NC(=O)[C@@H](NC(=O)[C@H](CN)NC(=O)[C@@H](NC(=O)[C@H](N)CSSCc2cccc(Cl)c2)[C@@H](C)O)CCNC(=O)[C@H]([C@@H](C)O)NC(=O)[C@H](CCN)NC(=O)[C@H](CCN)NC1=O (H-[dC](S(3-Cl-benzyl))T[Dap][Dab][Dab][dF]L[Dab][Dab]T; lactam 4-C) | 4.8 | –
– | – | – | – | 0.25 µg/mL | 1 µg/mL | 0.25 µg/mL | 1 µg/mL | Polymyxin B [reference compound] | – | 1
0.5 µg/mL (≈ 0.414 µM) | 2 µg/mL (≈ 1.65 µM) | 0.5 µg/mL (≈ 0.414 µM) | 1 µg/mL (≈ 0.827 µM) | – | – | – | – | CC(C)C[C@@H]1NC(=O)[C@@H](Cc2ccccc2)NC(=O)[C@H](CCN)NC(=O)[C@@H](NC(=O)[C@@H](CN)NC(=O)[C@@H](NC(=O)[C@H](N)CSSCc2cccc(Cl)c2)[C@@H](C)O)CCNC(=O)[C@H]([C@@H](C)O)NC(=O)[C@H](CCN)NC(=O)[C@H](CCN)NC1=O (H-[dC](S(3-Cl-benzyl))T[dDap][Dab][Dab][dF]L[Dab][Dab]T; lactam 4-C) | 5.7 | –

The next lines start with the compound.

Compound | MIC A. Baumanni (ATCC 19606) ([1]; ATCC 19606) | MIC E. Coli (ATCC 25922) ([2]; ATCC 25922) | MIC K. Pneumoniae (ATCC 13883) ([3]; ATCC 13883) | MIC P. Aeruginosa (ATCC 27853) ([4]; ATCC 27853) | MIC A. Baumanni (ATCC 19606) ([1]; strain ATCC 19606) | MIC E. Coli (ATCC 25922) ([2]; strain ATCC 25922) | MIC K. Pneumoniae (ATCC 13883) ([3]; strain ATCC 13883) | MIC P. Aeruginosa (ATCC 27853) ([4]; strain ATCC 27853) | PTEC Toxicity (relative to polymyxin B) [5] | PTEC Toxicity (relative to polymyxin B) ([5]; relative value, polymyxin B = 1)
CC(C)C[C@@H]1NC(=O)[C@@H](Cc2ccccc2)NC(=O)[C@H](CCN)NC(=O)[C@@H](NC(=O)[C@@H](CCN)NC(=O)[C@@H](NC(=O)[C@H](N)CSSCCC2CCCCC2)[C@@H](C)O)CCNC(=O)[C@H]([C@@H](C)O)NC(=O)[C@H](CCN)NC(=O)[C@H](CCN)NC1=O (H-[dC](S(2-cyclohexylethyl))T[dDab][Dab][Dab][dF]L[Dab][Dab]T; lactam 4-C) | 0.5 µg/mL (≈ 0.414 µM) | 2 µg/mL (≈ 1.65 µM) | 1 µg/mL (≈ 0.827 µM) | 2 µg/mL (≈ 1.65 µM) | – | – | – | – | 4.8 | –
CC(C)CCSSC[C@@H](N)C(=O)N[C@H](C(=O)N[C@@H](CN)C(=O)N[C@H]1CCNC(=O)[C@H]([C@@H](C)O)NC(=O)[C@H](CCN)NC(=O)[C@H](CCN)NC(=O)[C@H](CC(C)C)NC(=O)[C@@H](Cc2ccccc2)NC(=O)[C@H](CCN)NC1=O)[C@@H](C)O (H-[dC](S(3-Methylbutyl))T[Dap][Dab][Dab][dF]L[Dab][Dab]T; lactam 4-C) | 0.25 µg/mL (≈ 0.217 µM) | 1 µg/mL (≈ 0.866 µM) | 0.25 µg/mL (≈ 0.217 µM) | 1 µg/mL (≈ 0.866 µM) | – | – | – | – | 20.1 | –
CC(C)C[C@@H]1NC(=O)[C@@H](Cc2ccccc2)NC(=O)[C@H](CCN)NC(=O)[C@@H](NC(=O)CNC(=O)[C@@H](NC(=O)[C@H](N)CSSCc2cccc(Cl)c2)[C@@H](C)O)CCNC(=O)[C@H]([C@@H](C)O)NC(=O)[C@H](CCN)NC(=O)[C@H](CCN)NC1=O (H-[dC](S(3-Cl-benzyl))TG[Dab][Dab][dF]L[Dab][Dab]T; lactam 4-C) | 1 µg/mL (≈ 0.848 µM) | 2 µg/mL (≈ 1.7 µM) | 1 µg/mL (≈ 0.848 µM) | 4 µg/mL (≈ 3.39 µM) | – | – | – | – | 7.4 | –
